From paper PMC10895678 (Journal of Medicinal Chemistry, 2024) come the findings set out here.

Molecules are shown by their SMILES. Values after ≈ are worked out from the molar mass of the structure shown. Like-named read-outs stand apart in the source and are kept apart here.

Series [1] is described as follows: Mouse PPB, rapid equilibrium dialysis. The class given is in vitro ADME. The note with it: mouse plasma (100%), RED, 37 °C. Here is the method: Compounds were solubilized (10 mM in DMSO), and rapid equilibrium dialysis (RED) was used to measure the percentage binding to mouse plasma protein of the BGAz compounds at a final concentration of 5 μM. The BGAz compound was incubated in 100% mouse plasma and dialyzed against buffer in a RED device for 4 h at 37 °C in a 5% CO2 incubator, with continuous shaking at 200 rpm. Samples were matrix-matched and analyzed by LC-MS/MS against a six-point standard curve prepared with 100% plasma. All experiments were performed in triplicate.
For orientation: In equilibrium dialysis free small molecules cross a membrane that holds back macromolecules.

The subject of series [2] is M. tuberculosis H37Rv. The series is described as follows: MIC, resazurin microtiter assay (REMA), H37Rv. As to conditions: Mycobacterium tuberculosis, drug-sensitive reference strain, read-out: M. tb H37Rv MIC99. The class given is cell-based. Here is the method: The previously described resazurin microtiter assay (REMA) plate method was used.[73],[74] Compounds were two-fold serially diluted in CAMR Mycobacterium Medium MOD2 (CMM MOD2).[75] Individual wells, in a 96-well plate, were inoculated with 1 × 10^6 CFU mL^–1 bacilli and incubated for 7 days at 37 °C with agitation (200 rpm). Following this, resazurin solution was added to wells (0.02% (w/v) in PBS pH 7.4, supplemented with 5% Tween 80).[76] The 96-well plates were incubated at room temperature for 6 h. The OD570nm of each well was recorded using a Tecan Sunrise plate reader. The minimum inhibitory concentration (MIC99) was calculated using a modified Gompertz function.[77] The optical density measurements for each drug concentration were compared to vehicle control to determine the percentage reduction in bacterial optical density.
(In general: The colour change of resazurin is a common sign of viable cells or microbes.)

Series [3] in a line: HepG2 mitochondrial dysfunction (Glu/Gal cytotoxicity, MTT). Format: cell-based. As to conditions: human, HepG2 cells, 24 h, MTT. Here is the method: Compounds were solubilized to 30 mM in DMSO. The BGAz compounds were added to the HepG2 cell model in a 96-well microplate in half log dilutions from 100–0.0003 μM (final DMSO concentration 0.3%) using both glucose (DMEM consisting of 25 mM glucose) and galactose (DMEM consisting of 10 mM galactose) media. The compounds were incubated with the cell line for 24 h at 37 °C in a humidified CO2 tissue culture incubator, followed by cell viability staining with MTT (3-(4,5-dimethylthiazol-2-yl)-2.5-diphenyltetrazolium bromide) conversion to the Formazan product, determined by absorbance measurement. The cell viability IC50 was determined in HepG2 glucose and metabolism-modified HepG2 galactose, and the fold change difference between the Glu/Gal IC50 was determined. All experiments were performed in duplicate with the mitochondrial toxicity controls rotenone and Antimycin A and the cytotoxin control tamoxifen.

The test system of a further series is C. glutamicum. The series is described as follows: MIC, resazurin assay, C. glutamicum wild type. The note with it: for C. glutamicum MIC: modified Gompertz function; for MIC50 C. glutamicum / MIC99 C. glutamicum: supplementary MIC data file. Format: cell-based, Corynebacterium glutamicum.
In another series the target is T1, CYP1A2 (Homo sapiens, UniProt P05177).
T1 construct: from tissue; host or cells: human liver microsomes
T1 sequence (P05177 1-516): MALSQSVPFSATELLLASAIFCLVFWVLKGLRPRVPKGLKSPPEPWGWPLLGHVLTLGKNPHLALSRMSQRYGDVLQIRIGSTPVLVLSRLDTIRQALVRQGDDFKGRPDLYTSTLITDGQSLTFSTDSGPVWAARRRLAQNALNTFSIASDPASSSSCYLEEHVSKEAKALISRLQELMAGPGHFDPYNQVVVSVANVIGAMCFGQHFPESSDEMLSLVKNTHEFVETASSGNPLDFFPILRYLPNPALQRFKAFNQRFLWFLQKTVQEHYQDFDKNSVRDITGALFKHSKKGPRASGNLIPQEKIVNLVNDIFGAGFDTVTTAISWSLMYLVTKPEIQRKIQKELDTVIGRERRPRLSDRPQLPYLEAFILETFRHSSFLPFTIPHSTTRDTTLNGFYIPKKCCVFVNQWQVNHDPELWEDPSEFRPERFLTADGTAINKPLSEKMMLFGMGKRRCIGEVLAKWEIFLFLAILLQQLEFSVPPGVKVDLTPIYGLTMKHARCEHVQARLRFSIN
The series is described as follows: Cytochrome P450 inhibition, CYP1A2. The note with it: human liver microsomes. The class given is in vitro ADME. Here is the method: Compounds were solubilized to 10 mM in DMSO. The BGAz compounds were incubated at concentrations of 0.003, 0.009, 0.03, 0.08, 0.25, 0.74, 2.2, 6.7, and 20 μM with CYP1A2, CYP2C9, CYP2C19, and CYP2D6 at 37 °C in the presence of the drug-like probe substrate […] the Phase 1 cofactor NADPH (1 mM). The formation of metabolites of the drug-like probe substrates in the absence and presence of the BGAz compound was monitored by LC-MS/MS, and the IC50 value was determined. All assays had two replicates per compound and included a positive control inhibitor.
Background: Liver microsomes are a subcellular fraction often used to study metabolism.

For the next series, the system named is M. tuberculosis 1192/015. The series is described as follows: microbe, parasite or virus in culture. Format: cell-based. As to conditions: Mycobacterium tuberculosis, 1192/015, read-out: M. tb 1192/015 MIC99.
Another series relates to M. smegmatis. The series is described as follows: MIC determination, resazurin end point assay, M. smegmatis. Format: cell-based, Mycobacterium smegmatis. The note with it: Mycolicibacterium smegmatis; for MIC50: read-out: MIC50 smegmatis.
Series [4] has as its system M. tuberculosis H37Rv. The series is described as follows: Mycobacterial time kill experiments (total viable counts). Format: cell-based, Mycobacterium tuberculosis. As to conditions: 96 μM.
Another series concerns BCG pTIC6-fbpC. The class given is cell-based, Mycobacterium bovis BCG.
The mark [5] stands for this setting: galactose medium, read-out: HepG2 Cytotoxicity IC50, Gal.
The mark [6] stands for this setting: glucose medium, read-out: HepG2 Cytotoxicity IC50, Glu.
Setting [7] is: preincubated 30 min prior to NADPH, read-out: CYP1A2 [pre-inc] IC50.
Setting [8] is: without pre-incubation, read-out: CYP1A2 IC50.
[9] abbreviates: resazurin end point assay, modified Gompertz function, three biological replicates, read-out: M. smeg. MIC99.
[10] abbreviates: supplementary MIC data file, read-out: MIC99 smegmatis.

As usually defined, the fraction unbound is free concentration divided by total concentration. A lower fraction unbound goes with extensive binding. As usually defined, the IC50 is the concentration that gives 50% inhibition. The MIC50 is an inhibitory concentration at the 50% level, which refers to growth in some studies and to a panel of isolates in others. Take `FC(F)(F)Oc1ccc(C2CC(CN3CCCC3)N2Cc2ccccc2OC(F)(F)F)cc1` (centres unmarked) [BGAz-002]: in [1], the fraction unbound at 4 h, 5 μM was less than 0.01. Further, the MIC99 was 6.2 µM (≈ 2.94 µg/mL) with M. tuberculosis H37Rv [2], 37.8 µM (≈ 17.9 µg/mL) with M. tuberculosis 1192/015, 62 µM (≈ 29.4 µg/mL) with M. smegmatis (read-out: MIC99 smegmatis) and 32 µM (≈ 15.2 µg/mL) in the series on M. smegmatis (setting [9]). For the same compound, the figures for the IC50 at 24 h in [3] (setting [5]) and in series [3] (setting [6]) were 65 µM and 38 µM, respectively. This compound gave a C. glutamicum MIC with C. glutamicum of 50 µM. In the series on C. glutamicum, this compound had an MIC50 C. glutamicum of 43 µM (≈ 20.4 µg/mL). In the series with C. glutamicum, this compound displayed an MIC99 C. glutamicum of 49 µM (≈ 23.2 µg/mL). Moreover, the half-inhibitory concentration (IC50) at CYP1A2 (setting [7]) and at CYP1A2 (setting [8]) was more than 20 µM in each case. For the same compound, the MIC50 in the series on M. smegmatis came out at 49 µM (≈ 23.2 µg/mL).

Take `Brc1cc(Br)cc(C2CC(CN3CCCC3)N2Cc2ccccc2Br)c1` (centres unmarked) [BGAz-004]: the entries for the “reduction of total viable count” value with M. tuberculosis H37Rv [4] (after 6 days of exposure) and in the series with M. tuberculosis H37Rv [4] (after 14 days' exposure) were 0.79 ± 2.20 log10 CFU mL^–1 and 1.90 ± 1.28 log10 CFU mL^–1, respectively. The fraction unbound at 4 h, 5 μM in [1] is less than 0.01. Moreover, the MIC99 with M. tuberculosis H37Rv [2] amounted to 3.3 µM (≈ 1.79 µg/mL); with M. tuberculosis 1192/015, 15.4 µM (≈ 8.36 µg/mL); in the series on M. smegmatis (setting [9]), 14 µM (≈ 7.6 µg/mL); in the series with M. smegmatis (setting [10]), 14 µM (≈ 7.6 µg/mL). Also, the IC50 at 24 h in series [3] (setting [5]) and in series [3] (setting [6]) was more than 100 µM in each case. The compound also returned a BCG pTIC6-fbpC MIC in the series with BCG pTIC6-fbpC of 34 µM. In addition, the “increase in MIC upon overexpression of FbpC” value in the series with BCG pTIC6-fbpC is recorded as “two-fold increase”. Further, the C. glutamicum MIC with C. glutamicum turned out to be 20 µM. Also, the MIC50 C. glutamicum against C. glutamicum stood at 12 µM (≈ 6.52 µg/mL). The compound further yielded an MIC99 C. glutamicum in the series on C. glutamicum of 12 µM (≈ 6.52 µg/mL). Also, the half-maximal inhibitory concentration (IC50) on CYP1A2 (setting [7]) and on CYP1A2 (setting [8]) was more than 20 µM in each case. Besides, the MIC50 in the series with M. smegmatis (supplementary MIC data file) stood at 6 µM (≈ 3.26 µg/mL).

For the compound `CNCC1CC(c2ccc(OC(F)(F)F)cc2)N1Cc1ccccc1OC(F)(F)F` (centres unmarked) [BGAz-005], the “reduction of total viable count” value in the series on M. tuberculosis H37Rv [4] (after 6 days of exposure) is on record as 3.28 ± 1.00 log10 CFU mL^–1. The fraction unbound at 4 h, 5 μM in [1] is less than 0.01. For the same compound, the MIC99 in the series on M. tuberculosis H37Rv [2] turned out to be 7.2 µM (≈ 3.13 µg/mL); with M. tuberculosis 1192/015 it was 23.2 µM (≈ 10.1 µg/mL); with M. smegmatis (setting [9]), 24 µM (≈ 10.4 µg/mL); with M. smegmatis (setting [10]), 24 µM (≈ 10.4 µg/mL). Besides, the values for the IC50 at 24 h in series [3] (setting [5]) and in series [3] (setting [6]) were 23 µM and 21 µM, respectively. This compound also returned a BCG pTIC6-fbpC MIC with BCG pTIC6-fbpC of 50 µM. The “increase in MIC upon overexpression of FbpC” value in the series with BCG pTIC6-fbpC was “two-fold increase”. The C. glutamicum MIC in the series on C. glutamicum is 12 µM. In addition, the IC50 at CYP1A2 (setting [7]) and on CYP1A2 (setting [8]) was more than 20 µM each time. The MIC50 with M. smegmatis (supplementary MIC data file) came out at 9 µM (≈ 3.91 µg/mL).
